Data: doi:10.1101/2023.09.11.557219v1 (biorxiv, 2023)

Molecular target: SARS-CoV-2 M^pro (main protease, 3CL^pro, NSP5) (Severe acute respiratory syndrome coronavirus 2, UniProt P0DTD1)
Assay: fluorogenic substrate cleavage, Morrison fit
Assay type: biochemical
Conditions: HEPES 25 mM pH 7.0; fluorogenic substrate SAE0180

## O=C(NCCN1CCCC1)N1c2ccccc2Sc2ccccc21 [compound 3, 4080]
  Ki: 80 µM
